Source: patent publication US10996205B2, “Stress biomarkers and related non-invasive detection methods” (ARIZONA BOARD OF REGENTS ON BEHALF OF THE UNIVERSITY OF …, priority 2015, dated 2021)

Assay: Stability of cortisol in human eccrine sweat at room temperature
Description: To test the stability of cortisol in human eccrine sweat in order to improve sweat collection method and procedures, aliquots of the same sweat samples were left at room temperature for a duration of 3 hours, with each aliquots analyzed every 30 minutes in first hour and every hour afterwards.
Spiked human eccrine sweat samples were tested over a period of 3 hours at room temperature.

## C[C@]12CCC(=O)C=C1CC[C@@H]1[C@@H]2[C@@H](O)C[C@@]2(C)[C@H]1CC[C@]2(O)C(=O)CO [cortisol, 4-PREGNEN-11β, 17, 21-TRIOL-3, 20-DIONE]
Period of 3 hours at room temperature
  cortisol loss in spiked human eccrine sweat: No measurable cortisol loss
Spiked sweat, 0 minutes at room temperature
  Concentration: 29.191 ng/mL
Spiked sweat, 30 minutes at room temperature
  Concentration: 36.802 ng/mL
Spiked sweat, 1 hour at room temperature
  Concentration: 30.807 ng/mL
Spiked sweat, 2 hours at room temperature
  Concentration: 30.228 ng/mL
Spiked sweat, 3 hours at room temperature
  Concentration: 29.515 ng/mL
Unspiked human eccrine sweat
  Concentration: 3.488 ng/mL
